{
  "source": "patent US20130012709A1",
  "about": "“NOVEL INHIBITORS OF STEAROYL-CoA-DESATURASE-1 AND THEIR USES” (CENTRE NATIONAL DE LA RECHERCHE SCIENTIFIQUE, priority 2009, published 2013)",
  "key": {"C4-2 cells [1]": {"tested_on": "C4-2 cells", "experiment": "Human WNT Signaling Pathway PCR Array", "type": "cell-based", "conditions": "C4-2, 25 μM", "procedure": "C4-2 cells treated with the compound tested at 25 μM were analysed for the expression profiles of 84 genes related to Wnt-mediated signal transduction by using Human WNT Signaling Pathway PCR Array according to the manufacturers' recommendations (Tebu-Bio, Le Perray en Yvelines, France). The relative content of cDNA samples was normalized with the endogenous β2M, HPRT1, RPL13 and GAPDH reference genes, and the relative mRNA level was calculated according to the formula 2^−(ΔCt). Values are expressed as the fold change in relative mRNA level following treatment of cells with the tested compound at 25 μM, as compared to control."}, "transformed MEFs": {"tested_on": "transformed MEFs", "experiment": "Apoptosis, annexinV-FITC flow cytometry", "type": "cell-based, mouse", "conditions": "all transformed cells, 25 μM, 24 h", "procedure": "Cells were then rinsed in PBS, pelleted at 400 g for 5 min and maintained on ice for 20 min before resuspension in a […] propidium iodide (Sigma) solution. Cells were kept overnight at 4° C. and the percentages of cells in G1, S and G2-M phases of the cell cycle were measured with a Coulter Epics XL™ flow cytometer (Becton Dickinson) using 488-nm laser excitation. For apoptosis experiment, MEFs were treated with the tested compound at 25 μM for 24 h, then rinced in PBS, pelleted at 400 g for 5 min and stained with annexinV-FITC (Roche Diagnostics, Meylan, France) for 15 min at 4° C. The percentage of annexin positive cells was immediately analysed using 488-nm laser excitation."}, "normal MEFs (WT)": {"tested_on": "normal MEFs (WT)", "experiment": "Proliferation of MEFs", "type": "cell-based, mouse", "conditions": "slowly growing normal MEFs (WT)", "procedure": "(§1) Primary MEFs were obtained from embryos at embryonic day 13.5 by standard methods.\n(§2) Monolayer cell cultures were grown in Dulbecco's Modified Eagle's Medium (DMEM) supplemented with 25 mM glucose and 10% FCS.\n(§3) At 24 h, 48 h, 72 h and 96 h following addition of increasing concentrations of the tested compound in DMSO or DMSO alone, cells were trypsinized, pelleted by centrifugation at 1200 rpm for 5 min, resuspended in 500 μl of culture medium and counted in an hemocytometer."}, "[2]": {"tested_on": "MEFs transformed by HaRasV12 and SV40 Large T", "experiment": "Proliferation of MEFs", "type": "cell-based, mouse", "procedure": "as §1, §2, §3"}, "[3]": {"tested_on": "p53−/− MEFs transformed by HaRasV12", "experiment": "Proliferation of MEFs", "type": "cell-based, mouse", "conditions": "p53−/− MEFs fully transformed by HaRasV12", "procedure": "as §1, §2, §3"}, "[4]": {"experiment": "Toxicity in nude mice after daily i.p. injection", "type": "in vivo", "procedure": "Male athymic nude Mice (Foxn1 nu/nu) (Harlan, Grannat, France) were used at the age of 7 weeks (weight 25-30 g). All procedures were performed in compliance with the European Convention for the Protection of Vertebrate Animals Used for Experimentation (animal house agreement # B-34-172-27, authorization for animal experimentation #34.324). Experiments were done at least twice for each tested condition. Animals were sacrificed before they became compromised. Xenografts were established by subcutaneously injecting 2×10^6 LNCaP cells, 2×10^6 C4-2 cells or 5×10^5 MEFs SV40 in 100 μl of a Matrigel solution. For curative experiments, tumors were allowed to growth until they were measurable with a caliper. In each group, the mice were randomized and given SCD-1 inhibitor at 80 mg/kg in 100 μl of a labrafil-DMA-tween^80 solution (89:10:1) (treated group) or vehicle alone (control group), by daily intra-peritoneal (i.p.) injection 5 days of week. For preventive experiments, the mice were treated daily for 7 days before the day of xenograft. Tumor volume measurements were taken twice to three times a week and calculated according to the formula: length×width×height×0.5236. Data are expressed as the mean tumor volume or as fold of the start point tumor volume. […] All mice were monitored for survival until tumor volume had reached 2000 mm^3 or until death. […]"}, "ras SV40 MEFs tumors": {"tested_on": "ras SV40 MEFs tumors", "experiment": "ras SV40 MEFs xenograft, curative and preventive", "type": "in vivo, mice", "procedure": "(§4) Male athymic nude Mice (Foxn1 nu/nu) (Harlan, Grannat, France) were used at the age of 7 weeks (weight 25-30 g). All procedures were performed in compliance with the European Convention for the Protection of Vertebrate Animals Used for Experimentation (animal house agreement # B-34-172-27, authorization for animal experimentation #34.324). Experiments were done at least twice for each tested condition. Animals were sacrificed before they became compromised. Xenografts were established by subcutaneously injecting 2×10^6 LNCaP cells, 2×10^6 C4-2 cells or 5×10^5 MEFs SV40 in 100 μl of a Matrigel solution. For curative experiments, tumors were allowed to growth until they were measurable with a caliper. In each group, the mice were randomized and given SCD-1 inhibitor at 80 mg/kg in 100 μl of a labrafil-DMA-tween^80 solution (89:10:1) (treated group) or vehicle alone (control group), by daily intra-peritoneal (i.p.) injection 5 days of week. For preventive experiments, the mice were treated daily for 7 days before the day of xenograft. Tumor volume measurements were taken twice to three times a week and calculated according to the formula: length×width×height×0.5236. Data are expressed as the mean tumor volume or as fold of the start point tumor volume. For survival analysis, animals bearing pre-established C4-2 tumors were treated with BZ36 at 80 mg/kg or 160 mg/kg or with vehicle by daily i.p. injection 5 days of week. All mice were monitored for survival until tumor volume had reached 2000 mm^3 or until death. Analysis of survival was conducted by a log-rank test based on the Kaplan-Meier method. At euthanasia, tumors were excised and fixed in 4% formalin for immunohistological analyses.\nImmunohistochemical analysis of SCD-1 expression was performed using high-density Tissue Microarray (TMA) slide (Accumax array) with 39 prostate adenocarcinoma spots from different patients (Gleason scores from 5 to 9) with corresponding normal tissues. […] Sections were mounted in mowiol and analysed rapidly."}, "C4-2 tumor xenografts": {"tested_on": "C4-2 tumor xenografts", "experiment": "Subcutaneous xenograft, curative treatment", "type": "in vivo, mice", "procedure": "as §4\n(§5) Immunohistochemical analysis of SCD-1 expression was performed using high-density Tissue Microarray (TMA) slide (Accumax array) with 39 prostate adenocarcinoma spots from different patients (Gleason scores from 5 to 9) with corresponding normal tissues. Immunohistochemical analysis of pcna expression was performed on […] paraffin-embedded sections of LNCaP, C4-2 of Ras SV40 MEFs tumor xenografts. Briefly, after antigen retrieval, deparaffinized sections were blocked of Fc receptors with PBS containing 5% goat serum and then incubated with corresponding anti-SCD-1 mouse antibody, 1:50 (Abcam, Paris, France) or anti-pcna mouse antibody, 1:50 (Santa Cruz) in PBS-Tween 0.1%, overnight at 4° C. […] Sections were counterstained with Mayer's hematoxylin. […] Sections were mounted in mowiol and analysed rapidly."}, "LNCaP tumor xenografts": {"tested_on": "LNCaP tumor xenografts", "experiment": "Subcutaneous xenograft, curative treatment", "type": "in vivo, mice", "procedure": "as §4, §5"}, "C4-2 cells [5]": {"tested_on": "C4-2 cells", "experiment": "PI(3,4,5)P3 mass ELISA", "type": "cell-based, human", "conditions": "C4-2, 25 μM, 24 h, vs non-treated cells", "procedure": "(§6) The production of PI(3,4,5)P3 (PIP3) in LNCaP and C4-2 prostate cancer cells was measured 24 h following exposure to control medium or to medium supplemented with the inhibitor tested at 25 μM. The levels of produced PIP3 were quantified after cellular lipids extraction using a PI(3,4,5)P3 mass ELISA kit according to the manufacturer's instruction."}, "LNCaP cells": {"tested_on": "LNCaP cells", "experiment": "PI(3,4,5)P3 mass ELISA", "type": "cell-based, human", "conditions": "25 μM, 24 h, vs non-treated cells", "procedure": "as §6"}, "C4-2 tumors": {"tested_on": "C4-2 tumors", "experiment": "Survival analysis of mice with pre-established C4-2 tumors", "type": "in vivo", "conditions": "for animals surviving at 14 days of treatment: control group 37.5%", "procedure": "as §4"}},
  "data": [
    {"smiles": "COc1ccc(Br)c(C(=O)N2CCN(c3ccc(C(=O)NCCCc4ccccc4)cn3)CC2)c1", "note": "[BZ36]", "values": [
      {"measurement": "expression of genes in the β-cat pathway (frizzled family, cyclin D1, D2, D3, myc, c-jun, Wnt family members)", "setting": "C4-2 cells [1]", "result": "decreased expression"},
      {"measurement": "cell death (annexin V-positive cells)", "setting": "transformed MEFs", "result": "strong induction of cell death"},
      {"measurement": "proliferation index", "setting": "normal MEFs (WT)", "result": "only moderately reduced"},
      {"measurement": "proliferation index", "setting": "[2]", "result": "strongly decreased"},
      {"measurement": "proliferation", "setting": "[3]", "result": "efficiently blocked"},
      {"measurement": "histological examination of liver and skin", "setting": "[4]", "result": "absence of toxicity"},
      {"measurement": "weight loss or other toxicity", "setting": "[4]", "result": "no significant weight loss or other toxicity"},
      {"measurement": "ras SV40 MEFs tumors growth", "setting": "ras SV40 MEFs tumors; curative, from day 2, maintained along 12 days, vs vehicle", "result": "significantly prevented"},
      {"measurement": "mice with tumors five days after cells were grafted", "setting": "ras SV40 MEFs tumors; pre-treatment one week prior to graft, almost all vehicle treated mice developed tumors", "result": 50, "unit": "%"},
      {"measurement": "decrease of proliferative tumor cells (PCNA immunostaining)", "setting": "ras SV40 MEFs tumors; ras SV40 MEFs xenografts, vs vehicle-treated mice", "result": 61, "unit": "%"},
      {"measurement": "mice with tumor volume increased more than 4-fold", "setting": "C4-2 tumor xenografts; C4-2, 80 mg/kg, 42% of vehicle-treated mice", "result": 12, "unit": "%"},
      {"measurement": "xenografted mice with tumor regression", "setting": "C4-2 tumor xenografts; C4-2, 80 mg/kg, no regression in control mice", "result": 19, "unit": "%"},
      {"measurement": "tumor volume and tumor growth rate", "setting": "C4-2 tumor xenografts; C4-2 xenograft, 80 mg/kg i.p., vs vehicle", "result": "significantly reduced"},
      {"measurement": "decrease of proliferative tumor cells (PCNA immunostaining)", "setting": "C4-2 tumor xenografts; C4-2 xenografts, 80 mg/kg, vs control animals", "result": 41, "unit": "%"},
      {"measurement": "tumor volume and tumor growth rate", "setting": "LNCaP tumor xenografts; LNCaP xenograft, 80 mg/kg i.p., vs vehicle", "result": "significantly reduced"},
      {"measurement": "decrease of proliferative tumor cells (PCNA immunostaining)", "setting": "LNCaP tumor xenografts; LNCaP xenografts, 80 mg/kg, vs control animals", "result": 50, "unit": "%"},
      {"measurement": "mice with tumor volume increased more than 4-fold", "setting": "LNCaP tumor xenografts; LNCaP, 80 mg/kg, 42% of vehicle-treated mice", "result": 18, "unit": "%"},
      {"measurement": "xenografted mice with tumor regression", "setting": "LNCaP tumor xenografts; LNCaP, 80 mg/kg, no regression in control mice", "result": 27, "unit": "%"},
      {"measurement": "decrease of PI(3,4,5)P3 concentration", "setting": "C4-2 cells [5]", "result": 92, "unit": "%"},
      {"measurement": "decrease of PI(3,4,5)P3 concentration", "setting": "LNCaP cells", "result": 84, "unit": "%"},
      {"measurement": "animal survival in comparison to vehicle control", "setting": "C4-2 tumors; 80 mg/kg or 160 mg/kg, p=0.038", "result": "significant and dose-dependant prolongation"},
      {"measurement": "animals surviving at 14 days of treatment", "setting": "C4-2 tumors; 80 mg/kg", "result": 75, "unit": "%"},
      {"measurement": "median survival", "setting": "C4-2 tumors; 80 mg/kg, control group 14 days", "result": 21, "unit": "days"},
      {"measurement": "animals surviving at 28 days of treatment", "setting": "C4-2 tumors; 160 mg/kg, control group 12.5%", "result": 75, "unit": "%"},
      {"measurement": "animals surviving at 14 days of treatment", "setting": "C4-2 tumors; 160 mg/kg", "result": 100, "unit": "%"}
    ]}
  ]
}
